Test results published in US20230172990A1, “EXTRACELLULAR VESICLE COMPOSITIONS AND THE USE THEREOF IN THE TREATMENT OF SKIN CONDITIONS AND IN IMMUNE MODULATION” (priority 2020, published 2023).

Legend:
[1] = test system: streptozotocin-induced diabetic mouse punch biopsy model; assay: Mouse punch biopsy wound healing model (streptozotocin-induced diabetic mice); type: in vivo; conditions: elderly AT-MSCs cultured 24 hours with 20 μM Eda, 1 mM NAC or 2 μM AA
Description: The effect of the anti-oxidative agents Eda, NAC and AA on the wound healing ability of elderly AT-MSCs was investigated using the mouse punch biopsy model, as described in Dunn et al., J Vis Exp. (75): 50265, 2013). Briefly, 7-week-old male C57BL/6 mice were anesthetized using avertin and shaved. Two wounds were established using 5 mm biopsy punch in the mice upper dorsal area. MSCs (5×10^5 cells/wound) or EVs (4 μg/wound) were injected at 4 points surrounding the punch area. Each mouse had two punched wounds, (1) PBS and (2) cells or EV-treatment. A splint was stitched to the surrounding wound areas and covered with Tegaderm (3M, USA), and the wound sites were observed every day. The images of the wound areas were captured, and the necrotic areas were analyzed using Image J software (NIH, MD).

[2] = test system: elderly AT-MSCs; assay: Intracellular ROS level (H2-DCFDA fluorescence) in AT-MSCs; type: cell-based, human; conditions: 20 μM Eda; for ROS levels in elderly AT-MSCs after 24 hours of culture with agent: 1 mM NAC, 2 μM AA
Description: The expression of ROS in infant- and elderly-derived ATMSCs was evaluated. The intracellular ROS level was measured using 2′,7′-dichlorodihydrofluorescein diacetate (H2-DCFDA, Invitrogen) according to the manufacturer's instructions. Briefly, after reaching 80% confluence, the ATMSCs were washed with PBS and incubated with PBS containing 10 μM H2-DCFDA at 37° C. for 30 minutes. The fluorescence intensity was analyzed by absorbance at 495 nm and 525 nm wavelengths using a photoemission spectrophotometer (Corona Electric, Japan).
(§1) While not wishing to be bound by theory, the oxidative stress and resulting accumulation of ROS are believed to relate to the impaired function of elderly AT-MSCs. The effects of anti-oxidative agents on elderly AT-MSCs were tested and the expression of ROS in elderly AT-MSCs were measured following culture in the presence of 20 μM Edaravone (Eda), 1 mM N-acetylcysteine (NAC), or 2 μM Ascorbic Acid (AA), respectively. […] The concentration of Eda, NAC and AA was maintained in the culture media throughout the culture period. The effects of anti-oxidative agents on cell senescence were also investigated. Cell senescence was assessed by measuring the activity of senescence associated (SA) β-galactosidase following 6 or 12 passages of culture in the presence of 20 μM Eda, 1 mM NAC, or 2 μM AA. […] In FIGS. 3A, 3B and 3C, *=P<0.05, **=P<0.01, and ns=not significant.

[3] = test system: elderly AT-MSCs; assay: Cell senescence, senescence associated (SA) β-galactosidase activity; type: cell-based, human; conditions: 6 or 12 passages of culture with 20 μM Eda
Description: as §1

SMILES	Wound healing ability of elderly AT-MSCs cultured with the agent [1]	ROS levels in elderly AT-MSCs after 24 hours of culture with agent [2]	(SA) β-galactosidase activity (cell senescence) [3]	ROS reducing effect in elderly AT-MSCs following 1 cell passage ([2]; 1 cell passage)
O=C1O[C@H]([C@@H](O)CO)C(O)=C1O [AA, Ascorbic Acid]	no effect	reduced ROS levels		
CC(=O)N[C@@H](CS)C(=O)O [NAC, N-acetylcysteine]	no effect	reduced ROS levels		
CC1=NN(c2ccccc2)C(=O)C1 [Eda, Edaravone]	significantly improved wound healing	reduced ROS levels	reduced (SA) β-galactosidase activity	ROS reducing effects of Eda were evident
